Data: US20200197461A1, “NOVEL CANNABIS SATIVA LINES AND EXTRACTS WITH ANTI-CANCER PROPERTIES” (Pathway RX Inc., priority 2018, published 2020)
“And” between values parts separate entries of the source, which are not always exact repeats. Identical values can stand only once.

Test system: HCC1806 breast cancer cells
Assay: MTT proliferation assay on HCC1806 cells
Assay type: cell-based, human
Method: HCC 1806—Primary Acantholytic Squamous Cell Carcinoma
(Colorimetric assays using the tetrazolium salt thiazolyl blue, also termed MTT, after methyl-thiazolyl-tetrazolium)
Around 1500 cells are in placed in each well in 96 well plates, 10 extracts (tested 2 concentrations each, 0.007 mg/ml and 0.015 μg/μl) were added to separate wells. Untreated cells and DMSO-treated cells were used as controls in separate wells. Experiments were performed in triplicate. A total number of 9×10^4 cells are required at each concentration. The well plates were purchased from Sigma Aldrich.
Mix cells and medium nicely, add 150 μl per well, plate eight 96-well plates for each experiment.
Place 96-well plates in a 37° C. incubator with 5% CO2. After 24 hours, the medium was changed to the medium containing extracts.
The MTT assay was performed from Day 0 to Day 7 by adding 15 μl MTT labeling reagent into each well and incubated at 37° C. for 4 hours. Thereafter, 150 μl solubilization solution was added into each well and incubated overnight in the 37° C. incubator with 5% CO2.
3-(4,5-Dimethylthiazol-2-yl)-2,5-diphenyltetrazolium bromide assays were performed using the Cell Proliferation Kit I (Roche Diagnostics GmbH) as the manufacturer's instructions. The absorbance of the samples was measured at 595 nm using a microtiter plate reader (FLUOstar Omega, BMG LABTECH). The experiments were done in triplicate.

SMILES | effectiveness of pure cannabinoid on HCC1806 cancer cells (20 μM (0.0063 μg/μl)) | effective (active) concentration on HCC1806 cancer cells (pure cannabinoid) | effective concentration on HCC1806 cancer cells, converted (pure cannabinoid, conversion of 15 μM)
CCCCCc1cc(O)c2c(c1)OC(C)(C)[C@@H]1CCC(C)=C[C@@H]21 [THC, tetrahydrocannabinol] | only marginally and insignificantly effective | – | –
C=C(C)[C@@H]1CCC(C)=C[C@H]1c1c(O)cc(CCCCC)cc1O [CBD, cannabidiol] | – | 15 to 20 µM and 15 µM | 0.0047 µg/µL
